# Where two headings read alike, the source gives them in different places. Ends that are not written are not given here.
# Columns and labels:
# [1] = tested on: G. mellonella larvae infected with MDR-EAEC (a cocktail of three strains); experiment: G. mellonella larval survival; assay type: in vivo, Galleria mellonella; conditions: uninfected larvae, MIC dose, up to 120 h pi
# Procedure: The final instar of G. mellonella larvae was utilized for performing the in vivo assays ([Morgan et al., 2014]). The larvae (ca. 200–250 mg) inoculated with aliquots of MDR-EAEC suspensions (10 μl) by injection using Hamilton syringe (26 gauge) via the last right pro-leg were incubated at 37°C and the observations were noted. The larvae kept in a sterile environment were provided with ad lib food during the experiment.
# The determined LD50 dose for each MDR-EAEC strain in the larvae was validated and employed further in the in vivo experiments to evaluate the antibacterial efficacy of Lfcin (17–30).
# Galleria mellonella larvae were grouped 40 per group for in vivo antimicrobial testing of Lfcin (17–30) as follows: group I (MDR-EAEC infection control), groups II and III (infection + treatment groups), group IV (PBS control), and group V [Lfcin(17–30) control]. Optimized LD50 dose of MDR-EAEC (a cocktail of three strains) was administered to larvae of groups I to III, while MIC dose of Lfcin (17–30) and Meropenem was administered 3 h post-infection (pi) in groups II and III, respectively. Larval group IV was injected with sterile PBS, whereas MIC dose of Lfcin (17–30) was administered in group V. […]
# G. mellonella larvae = experiment: LDH cytotoxicity assay of larval haemolymph; assay type: in vivo, Galleria mellonella
# Procedure: Galleria mellonella larvae were grouped 40 per group for in vivo antimicrobial testing of Lfcin (17–30) as follows: group I (MDR-EAEC infection control), groups II and III (infection + treatment groups), group IV (PBS control), and group V [Lfcin(17–30) control]. Optimized LD50 dose of MDR-EAEC (a cocktail of three strains) was administered to larvae of groups I to III, while MIC dose of Lfcin (17–30) and Meropenem was administered 3 h post-infection (pi) in groups II and III, respectively. Larval group IV was injected with sterile PBS, whereas MIC dose of Lfcin (17–30) was administered in group V.
# The larvae were then observed for their survival rate, melanization (Supplementary Information S7), MDR-EAEC counts (Supplementary Information S8), hemocyte density (Supplementary Information S9) ([Wand et al., 2013]), lactate dehydrogenase (LDH) cytotoxicity assay (Supplementary Information S10) ([Gibreel and Upton, 2013]), and histopathology (Supplementary Information S11) ([Perdoni et al., 2014]), at an interval of 6 h till 24 h, followed by 24-h interval up to 120 h pi.
# G. mellonella (n=3 larvae per group) were analysed for the production of LDH, as a marker of cell damage, at an interval of 6 h pi for 24 h, followed by 24 h interval till 96 h pi using QuantiChrom LDH cytotoxicity assay kit, according to the manufacturer’s instructions. The positive and negative controls used in this study were […]. The absorbance was read using ELISA plate reader at 500 nm; the haemolymph from untreated larvae served as background control and the cytotoxicity was calculated as, Cytotoxicity (%) = (ODSample - ODControl)/ (ODTotal Lysis - ODControl) x 100, wherein, sample is the control absorbance of treated cell; control is the experimental absorbance of the untreated cell control and total lysis is the absorbance of Triton X-100 treated cells.
# MDR-EAEC strains = MDR-EAEC strains (n = 3)
# Procedure: (§1) Initially, characterization of Lfcin (17–30) was performed by determining its minimum inhibitory concentration (MIC), minimum bactericidal concentration (MBC), in vitro stability assays (high-end temperatures, the physiological concentration of cationic salts and proteases), and in vitro safety assays (sheep erythrocyte hemolysis and secondary cell line cytotoxicity) (Supplementary Files S1–S3). The membrane permeabilization effect of Lfcin (17–30) was assessed by flow cytometry, whereas outer and inner membrane permeability of MDR-EAEC strains treated with 1 × and 2 × MIC levels of Lfcin (17–30) was carried out based on the nitrocefin activity as well as the release of cytoplasmic β-galactosidase activity, respectively (Supplementary File S4). Further, Lfcin (17–30) was evaluated for its antibacterial activity against beneficial lactobacilli (L. acidophilus MTCC 10307 and L. rhamnosus MTCC 1408) (Supplementary File S5).
# [2] = tested on: preformed (48 h) MDR-EAEC biofilm; conditions: preformed (48 h) biofilm of MDR-EAEC strains
# Procedure: The MBEC of Lfcin (17–30) was determined against the preformed (48 h) MDR-EAEC biofilm ([Ceri et al., 1999]). MBEC value is the lowest concentration of Lfcin (17–30) that prevented the MDR-EAEC re-growth. This MBEC value of Lfcin (17–30) was further used to study the eradication of biofilm formed by MDR-EAEC strains.
# [3] = tested on: L. acidophilus MTCC 10307; conditions: 1X MIC, MRS broth, 37°C, 48 h, absorbance 600 nm and plating
# Procedure: as §1
# (§2) Besides, the safety aspect of Lfcin (17-30) against beneficial gut lactobacilli was also investigated. […] After incubation at 37 °C for 48 h, the antibacterial effect of AMP on commensal lactobacilli was measured by observing the absorbance at 600 nm (Thermo Scientific Multiskan GO) as well as drawing two 10 µl samples from each well and plating them onto MRS agar plates. […]
# L. rhamnosus MTCC 1408 = conditions: 1X MIC, MRS broth, 37°C, 48 h, absorbance 600 nm and plating
# Procedure: as §1, §2
# RAW 264.7 cells = conditions: MTT
# Procedure: as §1
# (§3) To determine the safety of Lfcin (17-30) on host cells, a haemolytic assay using sheep erythrocytes as well as cytotoxicity assay using secondary cell lines were performed with 1X, 2X and 4X MICs of Lfcin (17-30), respectively. In brief, haemolytic assay was performed, wherein the haemolytic activity of Lfcin (17-30) was tested by determining the extent of haemoglobin release from sheep erythrocytes (10%). Further, the safety aspect of Lfcin (17-30) was evaluated on secondary cell line viz., human epithelioma cell line (HEp-2), and murine macrophage cell line (RAW 264.7) by performing MTT [3-(4,5-dimethylthiazole-2-yl)-2,5-diphenyl tetrazolium bromide] assay.
# sheep erythrocytes = sheep erythrocytes (10%)
# Procedure: as §1, §3
# HEp-2 cells = conditions: MTT
# Procedure: as §1, §3
sequence,measurement,setting,value
FKCRRWQWRMKKLG [Lfcin (17–30)],survival rate,[1],100%
same,LDH cytotoxicity,G. mellonella larvae; infected larvae treated 3 h pi,cytotoxicity remained increased up to 48 h pi
same,LDH cytotoxicity,G. mellonella larvae; uninoculated larvae treated with MIC dose,significantly increased cytotoxicity was observed at 6 to 18 h pi
same,MBC,MDR-EAEC strains; at least 99.9% killing after 24 h,32 µM
same,MIC,MDR-EAEC strains; micro-broth dilution,32 µM
same,MBEC,[2],32 µM
same,antimicrobial effect on beneficial lactobacilli,[3],non-significant
same,antimicrobial effect on beneficial lactobacilli,L. rhamnosus MTCC 1408,non-significant
same,cytotoxicity / morphological changes,"RAW 264.7 cells; RAW 264.7, 1× and 2× MIC",remarkable morphological changes were not evident
same,cytotoxicity,"RAW 264.7 cells; RAW 264.7, 4× MIC",moderate to higher cytotoxicity
same,Haemolysis (%),sheep erythrocytes; MIC (1X),non-hemolytic
same,Haemolysis (%),sheep erythrocytes; MIC (2X),non-hemolytic
same,cytotoxicity / morphological changes,"HEp-2 cells; HEp-2, 1× and 2× MIC",remarkable morphological changes were not evident
same,cytotoxicity,"HEp-2 cells; HEp-2, 4× MIC",moderate to higher cytotoxicity

# Reference: PMC7531601, “Exploiting Lactoferricin (17–30) as a Potential Antimicrobial and Antibiofilm Candidate Against Multi-Drug-Resistant Enteroaggregative Escherichia coli” (Frontiers in Microbiology, 2020)
